Test system: 885512-296-R-J2-PDC complex spheroid viability
Assay: Anticancer human tumor 885512-296-R-J2-PDC patient-derived breast carcinoma cell line growth inhibition [GQUAD]
Details: for IC50: curve of first compound; for viability, T/C: stronger effect = lower value
Procedure, shortened: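 Multi-cell-type spheroids of tumor cells with HUVEC and mesenchymal stem cells, treated with drug combinations. Concentrations descend in half-log steps from near clinical Cmax, or from 10 microM where Cmax is unknown; viability read-out.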

[1] = second compound 0.0316 µM, first compound 0.0316 µM
[2] = second compound 0.0316 µM, first compound 0.1 µM
[3] = second compound 0.0316 µM, first compound 0.316 µM
[4] = second compound 0.0316 µM, first compound 1 µM
[5] = second compound 0.0316 µM, first compound 3.16 µM
[6] = second compound 0.0316 µM, first compound 10 µM
[7] = second compound 0.1 µM, first compound 0.0316 µM
[8] = second compound 0.1 µM, first compound 0.1 µM
[9] = second compound 0.1 µM, first compound 0.316 µM
[10] = second compound 0.1 µM, first compound 1 µM
[11] = second compound 0.1 µM, first compound 3.16 µM
[12] = second compound 0.1 µM, first compound 10 µM
[13] = second compound 0.316 µM, first compound 0.0316 µM
[14] = second compound 0.316 µM, first compound 0.1 µM
[15] = second compound 0.316 µM, first compound 0.316 µM
[16] = second compound 0.316 µM, first compound 1 µM
[17] = second compound 0.316 µM, first compound 3.16 µM
[18] = second compound 0.316 µM, first compound 10 µM
[19] = second compound 1 µM, first compound 0.0316 µM
[20] = second compound 1 µM, first compound 0.1 µM
[21] = second compound 1 µM, first compound 0.316 µM
[22] = second compound 1 µM, first compound 1 µM
[23] = second compound 1 µM, first compound 3.16 µM
[24] = second compound 1 µM, first compound 10 µM
[25] = second compound 3.16 µM, first compound 0.0316 µM
[26] = second compound 3.16 µM, first compound 0.1 µM
[27] = second compound 3.16 µM, first compound 0.316 µM
[28] = second compound 3.16 µM, first compound 1 µM
[29] = second compound 3.16 µM, first compound 3.16 µM
[30] = second compound 3.16 µM, first compound 10 µM
[31] = second compound 10 µM, first compound 0.0316 µM
[32] = second compound 10 µM, first compound 0.1 µM
[33] = second compound 10 µM, first compound 0.316 µM
[34] = second compound 10 µM, first compound 1 µM
[35] = second compound 10 µM, first compound 3.16 µM
[36] = second compound 10 µM, first compound 10 µM
[37] = second compound 0.0316 µM, first compound 0.000999 µM
[38] = second compound 0.0316 µM, first compound 0.00316 µM
[39] = second compound 0.0316 µM, first compound 0.00999 µM
[40] = second compound 0.0316 µM, first compound 0.0999 µM
[41] = second compound 0.1 µM, first compound 0.000999 µM
[42] = second compound 0.1 µM, first compound 0.00316 µM
[43] = second compound 0.1 µM, first compound 0.00999 µM
[44] = second compound 0.1 µM, first compound 0.0999 µM
[45] = second compound 0.316 µM, first compound 0.000999 µM
[46] = second compound 0.316 µM, first compound 0.00316 µM
[47] = second compound 0.316 µM, first compound 0.00999 µM
[48] = second compound 0.316 µM, first compound 0.0999 µM
[49] = second compound 1 µM, first compound 0.000999 µM
[50] = second compound 1 µM, first compound 0.00316 µM
[51] = second compound 1 µM, first compound 0.00999 µM
[52] = second compound 1 µM, first compound 0.0999 µM
[53] = second compound 3.16 µM, first compound 0.000999 µM
[54] = second compound 3.16 µM, first compound 0.00316 µM
[55] = second compound 3.16 µM, first compound 0.00999 µM
[56] = second compound 3.16 µM, first compound 0.0999 µM
[57] = second compound 10 µM, first compound 0.000999 µM
[58] = second compound 10 µM, first compound 0.00316 µM
[59] = second compound 10 µM, first compound 0.00999 µM
[60] = second compound 10 µM, first compound 0.0999 µM
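Also: spheroids exposed to the compounds for one week.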
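For viability, T/C in this document: percent of tumor spheroid viability relative to DMSO vehicle control wells.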

C=CC(=O)N1CCN(c2nc(=O)n(-c3c(C)ccnc3C(C)C)c3nc(-c4c(O)cccc4F)c(F)cc23)C(C)C1 (stereo not drawn) + CN(C)c1ccc(Nc2c3ccc(NC(=O)CCN4CCCC4)cc3nc3cc(NC(=O)CCN4CCCC4)ccc23)cc1
IC50 (second compound 0.0316 µM): > 10000 nM
IC50 (second compound 0.1 µM): > 10000 nM
IC50 (second compound 0.316 µM): > 10000 nM
IC50 (second compound 1 µM): > 10000 nM
IC50 (second compound 3.16 µM): > 10000 nM
IC50 (second compound 10 µM): < 31.6 nM
viability, T/C [1]: 104%
viability, T/C [2]: 94.9%
viability, T/C [3]: 108%
viability, T/C [4]: 103%
viability, T/C [5]: 102%
viability, T/C [6]: 105%
viability, T/C [7]: 111%
viability, T/C [8]: 99.5%
viability, T/C [9]: 101%
viability, T/C [10]: 108%
viability, T/C [11]: 114%
viability, T/C [12]: 100%
viability, T/C [13]: 107%
viability, T/C [14]: 97.9%
viability, T/C [15]: 103%
viability, T/C [16]: 119%
viability, T/C [17]: 99.9%
viability, T/C [18]: 105%
viability, T/C [19]: 101%
viability, T/C [20]: 88.8%
viability, T/C [21]: 101%
viability, T/C [22]: 117%
viability, T/C [23]: 102%
viability, T/C [24]: 108%
viability, T/C [25]: 106%
viability, T/C [26]: 115%
viability, T/C [27]: 120%
viability, T/C [28]: 129%
viability, T/C [29]: 103%
viability, T/C [30]: 77.7%
viability, T/C [31]: 27%
viability, T/C [32]: 21.7%
viability, T/C [33]: 21.9%
viability, T/C [34]: 18.9%
viability, T/C [35]: 20.6%
viability, T/C [36]: 10.3%

CC[C@@]1(O)C(=O)OCc2c1cc1n(c2=O)Cc2cc3c(CN(C)C)c(O)ccc3nc2-1 + CN(C)c1ccc(Nc2c3ccc(NC(=O)CCN4CCCC4)cc3nc3cc(NC(=O)CCN4CCCC4)ccc23)cc1
IC50 (second compound 0.0316 µM): 19.5 nM
IC50 (second compound 0.1 µM): 22 nM
IC50 (second compound 0.316 µM): 20.2 nM
IC50 (second compound 1 µM): 20.2 nM
IC50 (second compound 3.16 µM): 19.8 nM
IC50 (second compound 10 µM): < 0.999 nM
viability, T/C [37]: 105%
viability, T/C [38]: 93.1%
viability, T/C [39]: 80.7%
viability, T/C [1]: 28.4%
viability, T/C [40]: 6.28%
viability, T/C [3]: 4.08%
viability, T/C [41]: 102%
viability, T/C [42]: 95.5%
viability, T/C [43]: 83.5%
viability, T/C [7]: 34.9%
viability, T/C [44]: 6.9%
viability, T/C [9]: 3.94%
viability, T/C [45]: 95.9%
viability, T/C [46]: 103%
viability, T/C [47]: 80.7%
viability, T/C [13]: 30.2%
viability, T/C [48]: 8.66%
viability, T/C [15]: 5.73%
viability, T/C [49]: 99%
viability, T/C [50]: 89.1%
viability, T/C [51]: 78.9%
viability, T/C [19]: 32.2%
viability, T/C [52]: 8.09%
viability, T/C [21]: 7.14%
viability, T/C [53]: 85.8%
viability, T/C [54]: 78.5%
viability, T/C [55]: 82.5%
viability, T/C [25]: 28.2%
viability, T/C [56]: 11.3%
viability, T/C [27]: 5.81%
viability, T/C [57]: 20.1%
viability, T/C [58]: 23.4%
viability, T/C [59]: 18.2%
viability, T/C [31]: 10.8%
viability, T/C [60]: 7.67%
viability, T/C [33]: 5.22%

Cc1cccc(N(C)C(=O)C2C(O)CCN2c2nc(C)cc(C(F)(F)F)c2C#N)c1 (stereo not drawn) + CN(C)c1ccc(Nc2c3ccc(NC(=O)CCN4CCCC4)cc3nc3cc(NC(=O)CCN4CCCC4)ccc23)cc1
IC50 (second compound 0.0316 µM): > 10000 nM
IC50 (second compound 0.1 µM): > 10000 nM
IC50 (second compound 0.316 µM): > 10000 nM
IC50 (second compound 1 µM): > 10000 nM
IC50 (second compound 3.16 µM): > 10000 nM
IC50 (second compound 10 µM): < 31.6 nM
viability, T/C [1]: 101%
viability, T/C [2]: 89.8%
viability, T/C [3]: 106%
viability, T/C [4]: 102%
viability, T/C [5]: 113%
viability, T/C [6]: 97.7%
viability, T/C [7]: 110%
viability, T/C [8]: 106%
viability, T/C [9]: 102%
viability, T/C [10]: 87.3%
viability, T/C [11]: 104%
viability, T/C [12]: 91.7%
viability, T/C [13]: 111%
viability, T/C [14]: 99.6%
viability, T/C [15]: 106%
viability, T/C [16]: 97.8%
viability, T/C [17]: 101%
viability, T/C [18]: 96.8%
viability, T/C [19]: 88.5%
viability, T/C [20]: 105%
viability, T/C [21]: 95.1%
viability, T/C [22]: 93.2%
viability, T/C [23]: 84.6%
viability, T/C [24]: 80.8%
viability, T/C [25]: 94.8%
viability, T/C [26]: 96.5%
viability, T/C [27]: 108%
viability, T/C [28]: 86.8%
viability, T/C [29]: 96.2%
viability, T/C [30]: 62.2%
viability, T/C [31]: 23.6%
viability, T/C [32]: 22.4%
viability, T/C [33]: 18.6%
viability, T/C [34]: 19.3%
viability, T/C [35]: 15.8%
viability, T/C [36]: 5.88%

Cn1ncnc1[C@H]1c2n[nH]c(=O)c3cc(F)cc(c23)N[C@@H]1c1ccc(F)cc1 + CN(C)c1ccc(Nc2c3ccc(NC(=O)CCN4CCCC4)cc3nc3cc(NC(=O)CCN4CCCC4)ccc23)cc1
IC50 (second compound 0.0316 µM): 208 nM
IC50 (second compound 0.1 µM): > 316 nM
IC50 (second compound 0.316 µM): 215 nM
IC50 (second compound 1 µM): 195 nM
IC50 (second compound 3.16 µM): 74 nM
IC50 (second compound 10 µM): < 0.999 nM
viability, T/C [37]: 90%
viability, T/C [38]: 96.1%
viability, T/C [39]: 91.3%
viability, T/C [1]: 90.5%
viability, T/C [40]: 64.3%
viability, T/C [3]: 41.9%
viability, T/C [41]: 112%
viability, T/C [42]: 91.8%
viability, T/C [43]: 99.3%
viability, T/C [7]: 75.9%
viability, T/C [44]: 71.6%
viability, T/C [9]: 53.9%
viability, T/C [45]: 112%
viability, T/C [46]: 101%
viability, T/C [47]: 94.4%
viability, T/C [13]: 79.5%
viability, T/C [48]: 61.5%
viability, T/C [15]: 44%
viability, T/C [49]: 96.8%
viability, T/C [50]: 94%
viability, T/C [51]: 90.4%
viability, T/C [19]: 81.4%
viability, T/C [52]: 57.8%
viability, T/C [21]: 44.2%
viability, T/C [53]: 95.2%
viability, T/C [54]: 96.9%
viability, T/C [55]: 93.8%
viability, T/C [25]: 64.7%
viability, T/C [56]: 47.8%
viability, T/C [27]: 36%
viability, T/C [57]: 18.6%
viability, T/C [58]: 23%
viability, T/C [59]: 25%
viability, T/C [31]: 20.3%
viability, T/C [60]: 19.1%
viability, T/C [33]: 15.5%
